Test results from the NIST ThermoML archive (doi:10.1016/j.tca.2015.08.011).
Numbers after ± are expanded uncertainties.

Experiments:
[1] = molar heat capacity at constant pressure; settings: 101.33 kPa, Crystal, Small sample (50 mg) DSC
[2] = 101.33 kPa, Crystal, Laser pulse heating

[Ce+4].[O-2].[O-2] [ceric oxide]
Settings | molar heat capacity at constant pressure, [1] [J/K/mol] | thermal conductivity, [2] [W/m/K]
298.15 K | – | 15.15 ± 0.91
323.15 K | 57.9 ± 1.2 | –
373.15 K | 62.1 ± 1.2 | –
423.15 K | 65.42 ± 1.3 | –
473.15 K | 67.99 ± 1.4 | –
523.15 K | 69.93 ± 1.4 | –
573.15 K | 71.34 ± 1.4 | –
623.15 K | 72.32 ± 1.4 | –
673.15 K | 72.96 ± 1.5 | –
723.15 K | 73.34 ± 1.5 | –
773.15 K | 73.53 ± 1.5 | 6.05 ± 0.36
823.15 K | 73.6 ± 1.5 | –
873.15 K | 73.58 ± 1.5 | –
923.15 K | 73.53 ± 1.5 | –
973.15 K | 73.48 ± 1.5 | –
1023.1 K | 73.44 ± 1.5 | –
1073.2 K | 73.46 ± 1.5 | –
1123.2 K | 73.51 ± 1.5 | –
1173.2 K | 73.61 ± 1.5 | –
1273.2 K | – | 2.7 ± 0.16
